Biological target: T1, mouse SGLT4 (Mus musculus, UniProt Q8VDT1)
T1 construct: expressed in transfected cells; host or cells: HEK293T
T1 sequence (Q8VDT1 1-685): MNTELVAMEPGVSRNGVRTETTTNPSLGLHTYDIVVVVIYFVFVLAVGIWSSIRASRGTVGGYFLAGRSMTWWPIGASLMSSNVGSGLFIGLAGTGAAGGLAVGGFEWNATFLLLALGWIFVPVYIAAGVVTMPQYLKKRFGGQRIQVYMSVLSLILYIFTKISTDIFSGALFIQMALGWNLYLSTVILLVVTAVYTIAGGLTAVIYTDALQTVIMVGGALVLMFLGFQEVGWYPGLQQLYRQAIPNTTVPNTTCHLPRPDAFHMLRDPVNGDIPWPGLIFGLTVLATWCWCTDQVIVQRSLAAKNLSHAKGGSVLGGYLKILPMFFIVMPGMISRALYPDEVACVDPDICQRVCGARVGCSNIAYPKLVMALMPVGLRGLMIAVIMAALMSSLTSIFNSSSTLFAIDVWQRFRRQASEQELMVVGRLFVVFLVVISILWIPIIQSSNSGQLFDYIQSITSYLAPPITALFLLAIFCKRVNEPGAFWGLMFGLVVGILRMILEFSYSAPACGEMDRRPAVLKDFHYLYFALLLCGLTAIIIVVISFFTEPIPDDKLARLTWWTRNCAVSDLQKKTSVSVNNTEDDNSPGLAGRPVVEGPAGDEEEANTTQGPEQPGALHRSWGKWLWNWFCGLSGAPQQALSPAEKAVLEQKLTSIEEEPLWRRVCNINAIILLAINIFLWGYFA
Assay: Radioactive uptake assay (saturation kinetics) in HEK293T cells expressing mouse SGLT4
Assay type: cell-based
Experimental: For a typical transporter experiment we proceeded as follows. […] To minimize cell loss during the various washing steps in the radioactive uptake experiments, the wells where the cells were seeded were previously coated with poly- D-lysine, which improved their adhesion to the plastic surface of the wells. For this, each well of the 24-well plates was treated with 200 µl of a 0.01% poly-L-lysine solution for 10 min, washed 3 times with 1 ml of sterilized water and left to dry for 2 h. Only then could the 24-well plates be seeded with the appropriate cell lines and cultured overnight at 37 °C in 5% CO2.
On day two, the radioactive uptake assay could be performed. The cell culture media was removed by aspiration and cells were incubated for 20 min at 37 °C and 5% CO2 with a basal medium (10 mM HEPES, pH 7.4, 1 mM CaCl2, 1 mM MgCl2, 2 mM KCl) containing 140 mM choline chloride to deplete intracellular […] ions. This was subsequently replaced with the uptake medium (basal medium + 140 mM NaCl, 25 μM cytochalasin B, 1 mg/ml BSA) containing either radioactive U-[^14C]-mannose (15,000 cpm/well) or 2-[^3H]-1,5-AG (30,000 cpm/well) and respectively, non-radioactive mannose or 1,5-AG, at the required concentration in the experiment. Importantly, when measuring the transport of mannose, the uptake media also contained 0.5 mM glucose. This resulted from the need to reduce the background transport of mannose in control HEK293T cells in order to optimize the transport assay for this sugar in our model cell lines. Consequently, after testing various inhibitors (Supplementary Fig. 1), 0.5 mM glucose + 25 µM cytochalasin B appeared as the best combination to decrease efficiently the endogenous transport of mannose in control cells without affecting the transport of mannose in model cell lines overexpressing SGLT4 and SGLT5. […]
Once the uptake medium was added to the cells, the plates were incubated at 37 °C in 5% CO2 during the required time. […] In each experiment, the transport activities were calculated after subtracting a “blank” value, corresponding to the radioactivity in the appropriate control cells (HEK293T cells that were stably or transiently transfected with one of the parent plasmids pEF6/MycHisA, pEF6HisB, pUB82 or pUB83 with no inserted cDNA) that were analyzed in parallel. […]
Supplementary Fig. 4: Transport activities for 1,5-anhydroglucitol and mannose of recombinant mouse SGLT4 and SGLT5 isoforms measured in HEK293T cells.
Transport was measured in 24 well plates with 0.6x10^6 cells during 30 mins at 37°C in 5% CO2 in the presence of the indicated concentrations of 2-[1H+3H]-1,5-AG for both mSGLT4 (A) and mSGLT5 (B) and U-[12C+14C]-mannose (C) for mSGLT4. […]

SMILES | mSGLT4 Vmax (30 min, Supplementary Fig. 4) [pmol/min/100 000 cells] | Km (30 min, Supplementary Fig. 4, read-out: mSGLT4 Km) [mM] | Km of mouse SGLT4 lower for mannose than for 1,5-AG (mannose versus 1,5-AG) [fold]
OC[C@H]1OC[C@H](O)[C@@H](O)[C@@H]1O [1,5-AG, 1,5-anhydroglucitol] | 152 | > 5 | 
OC[C@H]1OC(O)[C@@H](O)[C@@H](O)[C@@H]1O (stereo partly shown) [Mannose, mannose] | 29 |  | 25

Reference: PMC10439028, “SGLT5 is the renal transporter for 1,5-anhydroglucitol, a major player in two rare forms of neutropenia” (Cellular and Molecular Life Sciences: CMLS, 2023)
